Structures can show the parent of a compound that is named as a salt. Where two headings read alike, the source gives them in different places.
Assays:
[1] = type: in vitro ADME, hairless rat
Experimental: • Freshly excised full thickness hairless rat skin (approximately 1 mm thick) was mounted in between the donor and receptor compartments of the horizontal diffusion cells with the stratum corneum facing the donor compartment. • The receptor compartment contained phosphate buffer (4 ml) at pH 7.4, and the donor compartment contained one of the following tetracycline hydrochloride solutions (4 ml): water (pH 2.1, 37 mg/ml), citrate buffer (pH 3.0, 9 mg/ml), phosphate buffer (pH 8.0, 0.7 mg/ml), or Teorell buffer (pH 8.3, 5.9 mg/ml, pH 11.9: 20 mg/ml). • The apparatus was maintained at 32° C., with constant stirring in both the donor and receptor compartments using magnetic stir bars to maintain sink conditions. • Silver/Silver chloride electrodes were used for iontophoresis. The area of skin exposed to the donor was 0.64 cm^2. • Current densities of 0.2 and 0.3 mA/cm^2 were applied for 1 h; and current density of 0.4 mA/cm^2 was applied for 30 min, 1 h and 2 h. Samples were collected for a period of 10 h. Both anodal and cathodal iontophoresis were performed. • At predetermined intervals, 0.5 ml of sample was collected from the receptor chamber and replenished with 0.5 ml of phosphate buffer (pH7.4). Analysis of Tetracycline Hydrochloride: • Samples from the receptor chamber were analyzed for the amount of tetracycline hydrochloride using a Shimadzu HPLC with a reverse phase column (Phenomenex, Luna C18 column with 5μ pore size). • The composition of the mobile phase used was 0.01N oxalic acid and acetonitrile (75:25) at a flow rate of 0.8 ml/min using a detection wavelength of 360 nm. Results: • The cumulative amount of drug permeating through the skin passively at the end of 10 h was 1.7±0.45 μg/cm^2 (FIG. 1). • Iontophoresis improved the delivery of the drug across the skin. i) The cumulative amount permeated through the skin at the end of 10 h by anodal iontophoresis for 1 h was 11.18±2.02 μg/cm^2. ii) The cumulative amount of the drug delivered at the end of 10 h by cathodal iontophoresis for 1 h was 19.65±6.9 μg/cm^2 (FIGS. 1 and 2). The current density used was 0.4 mA/cm^2 in both the cases. • The cumulative amount of drug permeated through the skin increased with an increase in the current density. The cumulative amount of the drug permeated through the skin over 10 hours increased from 5.85±0.72 μg/cm^2 to 19.65±6.9 μg/cm^2 with an increase in the current density from 0.2 mA/cm^2 to 0.4 mA/cm^2 (FIG. 3). • The amount of drug permeated through the skin increased with an increase in the duration of current application. […] For a donor concentration of 10 mg/ml, 22.11 μg/cm^2 of tetracycline hydrochloride permeated through the skin as compared to 8.25 μg/cm^2 delivered from a donor concentration of 2.5 mg/ml (FIG. 5). For all the above studies except anodal iontophoresis, tetracycline hydrochloride solution in borate buffer at pH 9.4 was employed. For anodal iontophoresis, tetracycline hydrochloride in citrate buffer at pH 3.0 has been used.

[2] = In vivo intracutaneous microdialysis with cathodal iontophoresis; parameters: species or system hairless rat; settings: 10 mg/mL, pH ~9.3; cathodal iontophoresis 200-400 μA/cm^2 for 0.5-4 hours; 4 hours of application time
Experimental: In vivo microdialysis studies were undertaken to determine the effect of current and time on the transdermal delivery of tetracycline using iontophoresis. The study placed a tetracycline formulation (10 mg/mL, pH ˜9.3) in a cartridge designed for iontophoresis. […] Cathodal iontophoresis current was varied from 200-400 μA/cm^2 for a period of 0.5-4 hours. The microdialysis dialysate samples collected were analyzed using HPLC. Potential skin irritation was monitored using chromameter, laser Doppler velocimetry (LDV) and transepidermal water loss (TEWL).

SMILES	amount of tetracycline hydrochloride permeated through the skin ([1]; hairless, rat, 2.5 mg/ml, pH 9.4) [μg/cm^2]	amount of tetracycline hydrochloride permeated through the skin ([1]; hairless, rat, 10 mg/ml, pH 9.4) [μg/cm^2]	cumulative amount permeated through the skin at the end of 10 h by anodal iontophoresis ([1]; hairless, rat, 10 h, 9 mg/ml, pH 3) [μg/cm^2]	cumulative amount of drug permeating through the skin passively at the end of 10 h ([1]; hairless, rat, 10 h, pH 9.4) [μg/cm^2]	cumulative amount of the drug delivered at the end of 10 h by cathodal iontophoresis ([1]; hairless, rat, 10 h, pH 9.4) [μg/cm^2]	cumulative amount of the drug permeated through the skin over 10 hours ([1]; hairless, rat, 10 h, pH 9.4) [μg/cm^2]	cumulative amount of drug permeated through the skin, cathodal iontophoresis compared to anodal iontophoresis or passive delivery ([1]; pH 9.4)	tetracycline concentration in the skin by microdialysis as a function of duration of current application [2]
CN(C)[C@@H]1C(O)=C(C(N)=O)C(=O)[C@@]2(O)C(O)=C3C(=O)c4c(O)cccc4[C@@](C)(O)[C@H]3C[C@@H]12 [tetracycline hydrochloride]	8.25	22.11	11.18±2.02	1.7±0.45	19.65±6.9	5.85±0.72	significantly increased	–
CN(C)[C@@H]1C(O)=C(C(N)=O)C(=O)[C@@]2(O)C(O)=C3C(=O)c4c(O)cccc4[C@@](C)(O)[C@H]3C[C@@H]12 [tetracycline]	–	–	–	–	–	–	–	highest amount of tetracycline concentration

— patent publication US20070292492A1, “PHARMACEUTICAL FORMULATIONS FOR IONTOPHORETIC TETRACYCLINE ANTIBIOTIC DELIVERY” (priority 2006, published 2007)
